Laboratory results from PubChem BioAssay AID2060889 (Molecular Pharmacology Branch, DTP, NCI, 2025).

Test system: LG0567-F671-PDC complex spheroids viability
Assay: Anticancer human tumor LG0567-F671-PDC patient-derived lung adenocarcinoma cell line growth inhibition [RAS]
Conditions: for IC50: curve of first compound; for viability, T/C: stronger effect = lower value
Procedure, shortened: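 Multi-cell-type spheroids: tumor cells plus HUVEC endothelial cells and mesenchymal stem cells. RAS-pathway inhibitors were combined with targeted agents, each dosed in half-log steps down from clinical Cmax, or from 10 microM when Cmax was unknown.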
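Note: spheroids exposed to compound for seven days before readout.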
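Throughout, for IC50: luminescence signal used as a proxy for viable cells.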

CC(=O)OC12COC1CC(O)C1(C)C(=O)C(O)C3=C(C)C(OC(=O)C(O)C(NC(=O)OC(C)(C)C)c4ccccc4)CC(O)(C(OC(=O)c4ccccc4)C21)C3(C)C (centres undefined) + C=CC(=O)N1CCN(c2nc(OCC3CCCN3C)nc3c(F)c(-c4nc(N)cc(C)c4C(F)(F)F)c(Cl)cc23)C(C)C1
IC50 (second compound 0.00316 µM): < 31.6 nM
IC50 (second compound 0.01 µM): < 31.6 nM
IC50 (second compound 0.0316 µM): < 31.6 nM
IC50 (second compound 0.1 µM): < 31.6 nM
IC50 (second compound 0.316 µM): < 31.6 nM
IC50 (second compound 1 µM): < 31.6 nM
viability, T/C (second compound 0.00316 µM, first compound 0.0316 µM): 14%
viability, T/C (second compound 0.00316 µM, first compound 0.1 µM): 12.6%
viability, T/C (second compound 0.00316 µM, first compound 0.316 µM): 13.9%
viability, T/C (second compound 0.00316 µM, first compound 1 µM): 14.3%
viability, T/C (second compound 0.00316 µM, first compound 3.16 µM): 15.8%
viability, T/C (second compound 0.00316 µM, first compound 10 µM): 12%
viability, T/C (second compound 0.01 µM, first compound 0.0316 µM): 11.3%
viability, T/C (second compound 0.01 µM, first compound 0.1 µM): 11.3%
viability, T/C (second compound 0.01 µM, first compound 0.316 µM): 9.97%
viability, T/C (second compound 0.01 µM, first compound 1 µM): 11.6%
viability, T/C (second compound 0.01 µM, first compound 3.16 µM): 12.5%
viability, T/C (second compound 0.01 µM, first compound 10 µM): 9.61%
viability, T/C (second compound 0.0316 µM, first compound 0.0316 µM): 13.7%
viability, T/C (second compound 0.0316 µM, first compound 0.1 µM): 11.6%
viability, T/C (second compound 0.0316 µM, first compound 0.316 µM): 10.8%
viability, T/C (second compound 0.0316 µM, first compound 1 µM): 11.4%
viability, T/C (second compound 0.0316 µM, first compound 3.16 µM): 14.5%
viability, T/C (second compound 0.0316 µM, first compound 10 µM): 9.14%
viability, T/C (second compound 0.1 µM, first compound 0.0316 µM): 11.1%
viability, T/C (second compound 0.1 µM, first compound 0.1 µM): 10.8%
viability, T/C (second compound 0.1 µM, first compound 0.316 µM): 10.9%
viability, T/C (second compound 0.1 µM, first compound 1 µM): 11.5%
viability, T/C (second compound 0.1 µM, first compound 3.16 µM): 13.6%
viability, T/C (second compound 0.1 µM, first compound 10 µM): 8.85%
viability, T/C (second compound 0.316 µM, first compound 0.0316 µM): 11.9%
viability, T/C (second compound 0.316 µM, first compound 0.1 µM): 10.7%
viability, T/C (second compound 0.316 µM, first compound 0.316 µM): 11.5%
viability, T/C (second compound 0.316 µM, first compound 1 µM): 12.2%
viability, T/C (second compound 0.316 µM, first compound 3.16 µM): 14.7%
viability, T/C (second compound 0.316 µM, first compound 10 µM): 9.3%
viability, T/C (second compound 1 µM, first compound 0.0316 µM): 12.6%
viability, T/C (second compound 1 µM, first compound 0.1 µM): 10.2%
viability, T/C (second compound 1 µM, first compound 0.316 µM): 12.4%
viability, T/C (second compound 1 µM, first compound 1 µM): 14.5%
viability, T/C (second compound 1 µM, first compound 3.16 µM): 14.7%
viability, T/C (second compound 1 µM, first compound 10 µM): 9.86%

CC1(C)CCC(Nc2ncc(C(F)(F)F)c(-c3c[nH]c4c(P(C)(C)=O)c(C#N)ccc34)n2)CN1 (centres undefined) + C=CC(=O)N1CCN(c2nc(OCC3CCCN3C)nc3c(F)c(-c4nc(N)cc(C)c4C(F)(F)F)c(Cl)cc23)C(C)C1
IC50 (second compound 0.00316 µM): < 0.949 nM
IC50 (second compound 0.01 µM): < 0.949 nM
IC50 (second compound 0.0316 µM): < 0.949 nM
IC50 (second compound 0.1 µM): < 0.949 nM
IC50 (second compound 0.316 µM): < 0.949 nM
IC50 (second compound 1 µM): < 0.949 nM
viability, T/C (second compound 0.00316 µM, first compound 0.000949 µM): 12.2%
viability, T/C (second compound 0.00316 µM, first compound 0.003 µM): 11.3%
viability, T/C (second compound 0.00316 µM, first compound 0.00949 µM): 11.2%
viability, T/C (second compound 0.00316 µM, first compound 0.03 µM): 13.6%
viability, T/C (second compound 0.00316 µM, first compound 0.0949 µM): 12.2%
viability, T/C (second compound 0.00316 µM, first compound 0.3 µM): 11.8%
viability, T/C (second compound 0.01 µM, first compound 0.000949 µM): 11.9%
viability, T/C (second compound 0.01 µM, first compound 0.003 µM): 10.2%
viability, T/C (second compound 0.01 µM, first compound 0.00949 µM): 10.1%
viability, T/C (second compound 0.01 µM, first compound 0.03 µM): 10.1%
viability, T/C (second compound 0.01 µM, first compound 0.0949 µM): 13%
viability, T/C (second compound 0.01 µM, first compound 0.3 µM): 12.4%
viability, T/C (second compound 0.0316 µM, first compound 0.000949 µM): 9.75%
viability, T/C (second compound 0.0316 µM, first compound 0.003 µM): 9.55%
viability, T/C (second compound 0.0316 µM, first compound 0.00949 µM): 10.2%
viability, T/C (second compound 0.0316 µM, first compound 0.03 µM): 11.2%
viability, T/C (second compound 0.0316 µM, first compound 0.0949 µM): 10.7%
viability, T/C (second compound 0.0316 µM, first compound 0.3 µM): 10.8%
viability, T/C (second compound 0.1 µM, first compound 0.000949 µM): 10.9%
viability, T/C (second compound 0.1 µM, first compound 0.003 µM): 9.77%
viability, T/C (second compound 0.1 µM, first compound 0.00949 µM): 10.7%
viability, T/C (second compound 0.1 µM, first compound 0.03 µM): 10.9%
viability, T/C (second compound 0.1 µM, first compound 0.0949 µM): 11.5%
viability, T/C (second compound 0.1 µM, first compound 0.3 µM): 10.2%
viability, T/C (second compound 0.316 µM, first compound 0.000949 µM): 10%
viability, T/C (second compound 0.316 µM, first compound 0.003 µM): 9.73%
viability, T/C (second compound 0.316 µM, first compound 0.00949 µM): 10.6%
viability, T/C (second compound 0.316 µM, first compound 0.03 µM): 10.2%
viability, T/C (second compound 0.316 µM, first compound 0.0949 µM): 12.2%
viability, T/C (second compound 0.316 µM, first compound 0.3 µM): 11.4%
viability, T/C (second compound 1 µM, first compound 0.000949 µM): 10.2%
viability, T/C (second compound 1 µM, first compound 0.003 µM): 11%
viability, T/C (second compound 1 µM, first compound 0.00949 µM): 10.4%
viability, T/C (second compound 1 µM, first compound 0.03 µM): 11.1%
viability, T/C (second compound 1 µM, first compound 0.0949 µM): 12.4%
viability, T/C (second compound 1 µM, first compound 0.3 µM): 12.3%
